Measurements from patent US20200165194A1, “ADDITIVE COMPOSITION FOR CULTURE MEDIUM, ADDITIVE COMPOUND FOR CULTURE MEDIUM, AND METHOD FOR CULTURE OF CELLS OR TISSUE USING SAME” (NISSAN CHEMICAL CORPORATION, priority 2017, published 2020).

Legend:
Type in all cases: cell-based
[1] = system: Bone marrow-derived human mesenchymal stem cells (BM-hMSC); experiment: Cells cultured by hanging drop method, ATP assay (Experimental Example 12); conditions: for cell number (relative value): BM-hMSC, hanging drop, 5 μM, 2 days, control = 100%; for cell number (in words): bone marrow-derived human mesenchymal stem cells, hanging drop method
Method: (§1) Human epithelial-like cell cancer-derived cell line A431 (manufactured by ATCC) was cultured using 10% FBS and 1% MEM non-essential amino acid solution (MEM NEAA, manufactured by Wako Pure Chemical Industries, Ltd.)-containing EMEM (manufactured by Wako Pure Chemical Industries, Ltd.)). In addition, bone marrow-derived human mesenchymal stem cells (BM-hMSC, manufactured by PromoCell) were cultured using a mesenchymal stem cell proliferation medium (manufactured by PromoCell). Each of the above-mentioned cells in the logarithmic growth phase was washed with PBS, a 0.25 w/v % trypsin-1 mmol/L EDTA (ethylenediaminetetraacetic acid) solution (manufactured by Wako Pure Chemical Industries, Ltd.) was added, and the cells were detached by incubating at 37° C. for 3 min. Each medium was added, the mixture was centrifuged, and the supernatant was removed.
(§2) The cell suspension was seeded by 10 μL in 15 drops on the back surface of the lid of a 3.5 cm dish (manufactured by Falcon, #351008) to form droplets. At this time, as a control, a medium supplemented with DMSO (final concentration of DMSO: 0.05%) was seeded by 10 μL in 15 drops. The lid was returned to a 3.5 cm dish added with 2 mL of PBS, and cultured for 2 days in an incubator at 37° C., 5% CO2. The cultured droplets were collected in a 1.5 mL tube, and the medium was added to a final volume of 150 μL.

[2] = system: human epithelial-like cell cancer-derived cell line A431; experiment: as above; conditions: for cell number (in words): A431 cell line, three-dimensional cell culture by the hanging drop method; for cell number (relative value): A431 cell, hanging drop, 5 μM, 2 days, control = 100%
Method: as §1, §2

[3] = system: SKOV3 cells (human ovarian cancer-derived cell line); experiment: Cell proliferation activity in three-dimensional medium FCeM, ATP assay (Experimental Example 1); conditions: SKOV3, 3D medium FCeM, 4 days, DMSO control = 100%, average of two tests
Method: A cell proliferation promoting effect when the compound to be used in the present invention was added to a three-dimensional medium was studied. Specifically, precultured (adhesion cultured) SKOV3 cells (human ovarian cancer-derived cell line) were recovered and suspended in a three-dimensional cell culture medium (“FCeM (registered trade mark)” (Nissan chemical corporation)) to prepare a cell suspension. […] The cell suspension seeded in the plate was stood overnight at 37° C., 5% CO2. Then, a DMSO diluted solution (4.44 μL) of the compound to be used in the present invention was added at a final concentration of 5 μM (or two steps of […] and 10 μM) (no stirring after addition). After addition of each compound, the mixtures were stood for 4 days at 37° C., 5% CO2. […] The luminescence intensity (RLU value) was measured by FlexStation3 (manufactured by Molecular Devices), and cell proliferation was evaluated.
The proliferation rate was calculated based on the control (cells added with DMSO without containing the compound to be used in the present invention) as the standard (100%). The values shown in the tables are average values of the results of two tests.

[4] = system: Human mesenchymal stem cells (hMSC); experiment: Human mesenchymal stem cells-1: viable cell count, 2D and 3D culture (Experimental Example 9); conditions: for cell proliferation rate (relative value): hMSC, 10 μM, 7 days, compound non-addition = 1; for number of hMSC cells (in words): two-dimensional and three-dimensional cell culture conditions
Method: Human mesenchymal stem cells (hMSC, manufactured by TOYOBO) were precultured by a single layer culture method (2D) using an MF-medium mesenchymal stem cell proliferation medium (manufactured by TOYOBO). In three-dimensional culture method (3D), hMSC were suspended in a medium composition added with deacylated gellan gum, and seeded in a […] flat bottom Ultr-low Attachment surface plate (manufactured by Corning Incorporated, #3471) at 1.2×10^5 cells/2 mL/well. In 2D, hMSC were suspended in a deacylated gellan gum-free medium composition, and seeded in a 6-well flat bottom plate (manufactured by Corning Incorporated, #3516) at 4.0×10^4 cells/2 mL/well. […] As a control, DMSO was added at a final concentration of 0.1%. Seven days later, in the three-dimensional culture method, cells were collected from the wells, washed with PBS, and the supernatant was removed. Then, a trypsin 0.25 w/v % trypsin-1 mmol/L EDTA (ethylenediaminetetraacetic acid) solution (manufactured by Wako Pure Chemical Industries, Ltd.) was added and the cells were incubated at 37° C. for 2-5 min to disperse the spheres into single cells. The medium was added, and the mixture was centrifuged to remove the supernatant. Thereafter, the cells were resuspended in the same medium, a part was suspended in Trypan Blue (manufactured by Wako Pure Chemical Industries, Ltd.), and the number of viable cells was counted using automatic cell counter TC20 (manufactured by BIO-RAD).
In a single layer culture method, the cells were washed with PBS, 0.25 w/v % trypsin-1 mmol/L EDTA solution was added, and the cells were detached by incubating at 37° C. for 2-5 min. The medium was added, the mixture was centrifuged and the supernatant was removed. Thereafter, the cells were resuspended in the same medium, a part was suspended in Trypan Blue (manufactured by Wako Pure Chemical Industries, Ltd.) and the number of viable cells was counted using TC-20 (manufactured by BIO-RAD).
CD34 antibody (APC, manufactured by BD Bioscience), CD73 (BV421, manufactured by BD Bioscience), CD29 (BB515, manufactured by BD Bioscience) were added to the above-mentioned cell suspension, and the mixture was incubated on ice for 30 min. The cells were washed twice with 2% SM buffer (2% FBS/PBS), SM containing 1 μg/mL of Propidium Iodide (PI) was added, and the mixture was analyzed with FACSAria (manufactured by Becton Dickinson). The cell number with compound non-addition (control) was taken as 1, and relative value with addition of each compound is calculated in the fifteenth table. The positive rates or negative rates of CD34, CD73, and CD29 of cells after three-dimensional culture (3D) under the conditions with no addition or addition of the compound are shown in the sixteenth table.

| SMILES | cell number (relative value) [1] [%] | cell number (in words) [1] | cell number (in words) [2] | cell number (relative value) [2] [%] | proliferation rate (%) ([3]; compound 5 μM) | cell proliferation rate (relative value) ([4]; 2D) | cell proliferation rate (relative value) ([4]; 3D (deacylated gellan gum)) | number of hMSC cells (in words) [4] | proliferation rate (%) (5 μM) ([3]; 5 μM) | proliferation rate (%) (10 μM) ([3]; 10 μM) |
| --- | --- | --- | --- | --- | --- | --- | --- | --- | --- | --- |
| CC/C(=N\NC(=O)C(C)Nc1ccccc1)c1ccc(O)c(C)c1O (centres unmarked) [k-1:B-1] | 223 | showed an effect of increasing the number | showed an effect of increasing the number | 227 | – | – | – | – | – | – |
| CCC(=NNC(=O)C(CC)Nc1ccccc1)c1ccc(O)c(C)c1O (centres unmarked) [k-1:H-7] | 206 | showed an effect of increasing the number | showed an effect of increasing the number | 232 | 236.46 | 1.9 | 4 | showed an effect of increasing the number of hMSC cells | – | – |
| CC/C(=N\NC(=O)Nc1ccccc1)c1ccc(O)c(C)c1O [k-1:H-10] | – | – | – | – | – | 1.3 | 1.7 | showed an effect of increasing the number of hMSC cells | 127.9 | 138.4 |
